Consider 11 molecules from ChEMBL document CHEMBL1201862, “PubChem BioAssay data set” (2004).

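In this assay, cells in 96-well plates receive the compound at five concentrations for 48 hours. Endpoints are linearly interpolated between the surrounding concentrations. GI50 marks 50% less growth.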 Calls of active or inactive are those of the source. Rule as the data show it: active = GI50 up to about 1.1 µM and inactive = higher. A value given as a limit tells only on which side of the number the result lay.

Test systems include UACC-257; SF-295; DLD-1; SW-620; K562; SN12C; M19-MEL; HCT-116; DMS-114; CAKI-1; IGROV-1; HL-60; RPMI-8226; COLO 205; RXF 393; NCI-H226; NCI-H460; HCT-15.
What all share (experiment): NCI-60 cell line screen, 48 h

For the molecule `COc1ccc2cc3[n+](cc2c1OC)CCc1cc(O)c(O)cc1-3`, the GI50 with UACC-257, in the test with SF-295, in the test with DLD-1, with SW-620, with K562 and in the test on SN12C was > 100 µM (inactive) throughout. The GI50 in the test on M19-MEL, in the test on HCT-116, in the test with DMS-114, with CAKI-1, in the test on IGROV-1 and with HL-60 was > 100 µM (inactive) in each case. Moreover, the GI50 with RPMI-8226 was > 100 µM (inactive); with COLO 205, > 100 µM (inactive); in the test on RXF 393, > 100 µM (inactive); in the test on NCI-H226 it was > 100 µM (inactive); with NCI-H460 it was > 100 µM (inactive); in the test on HCT-15 it was above 100 µM.
On to `N#C/C(=C\c1cccc(Cl)c1Cl)c1ccccc1`, for which the GI50 was > 100 µM (inactive) in the test with UACC-257; 38.4 µM (inactive) with SF-295; > 72.8 µM (inactive) in the test with DLD-1; > 53 µM (inactive) with SW-620; > 72.4 µM (inactive) with K562; 49.1 µM (inactive) with SN12C. The GI50 in the test with M19-MEL is > 84.3 µM (inactive); in the test with HCT-116, 33 µM (inactive); with DMS-114 it was 43.7 µM (inactive); in the test with CAKI-1, 40.1 µM (inactive); in the test with IGROV-1, 33.7 µM (inactive); in the test on HL-60, > 100 µM (inactive). Also, the GI50 in the test on RPMI-8226 is > 61.9 µM (inactive); in the test with COLO 205, > 100 µM (inactive); with RXF 393, 31 µM (inactive); in the test on NCI-H226 it was 56.2 µM (inactive); with NCI-H460, 58.9 µM (inactive); with HCT-15 it was above 57.4 µM.
For `C=CCN1COc2c(cc3c4c(cccc24)C(=O)O3)C1`, the GI50 in the test on UACC-257 is 26.4 µM (inactive); with SF-295, 35.1 µM (inactive); with DLD-1 it was 25.4 µM (inactive); with SW-620 it was 25.4 µM (inactive); in the test with K562, 15.5 µM (inactive); in the test on SN12C, 21 µM (inactive). The GI50 in the test on M19-MEL is 18.7 µM (inactive); with HCT-116 it was 20.1 µM (inactive); in the test on DMS-114, 17.9 µM (inactive); with CAKI-1, 27.5 µM (inactive); in the test with IGROV-1 it was > 100 µM (inactive); in the test on HL-60 it was 21.4 µM (inactive). Also, the GI50 was 33.6 µM (inactive) in the test on RPMI-8226; 17.9 µM (inactive) in the test on COLO 205; > 10 µM (inactive) in the test with RXF 393; > 100 µM (inactive) in the test with NCI-H226; 43.6 µM (inactive) in the test on NCI-H460; 29.2 µM with HCT-15.
With `NC(CCc1nc(-c2ccccc2)cs1)C(=O)O` (configuration not stated), the GI50 in the test with UACC-257, in the test with SF-295, with DLD-1, in the test on SW-620, in the test with K562 and in the test on SN12C was > 100 µM (inactive) throughout. The GI50 in the test on M19-MEL, in the test on HCT-116, with DMS-114, in the test on CAKI-1, with IGROV-1 and with HL-60 was > 100 µM (inactive) throughout. Also, the GI50 with RPMI-8226 is > 100 µM (inactive); with COLO 205 it was > 100 µM (inactive); with RXF 393 it was > 100 µM (inactive); in the test on NCI-H226, > 100 µM (inactive); with NCI-H460, > 100 µM (inactive); in the test with HCT-15 it was above 100 µM.
Take `CC(C)N(C(=O)C12C3C4C5C3C1(C(=O)N(C(C)C)C(C)C)C5C42)C(C)C` (configuration not stated): the GI50 was > 100 µM (inactive) in the test on UACC-257; > 100 µM (inactive) in the test with SF-295; > 45.3 µM (inactive) in the test with DLD-1; > 52.4 µM (inactive) in the test on SW-620; > 39.2 µM (inactive) in the test on K562; > 100 µM (inactive) in the test on SN12C. Moreover, the GI50 with M19-MEL is > 100 µM (inactive); in the test on HCT-116, > 43.6 µM (inactive); in the test on DMS-114 it was > 44.5 µM (inactive); in the test on CAKI-1, > 100 µM (inactive); in the test with IGROV-1 it was > 100 µM (inactive); with HL-60, > 37.6 µM (inactive). For the same molecule, the GI50 in the test on RPMI-8226 is > 44.7 µM (inactive); with COLO 205, > 44.5 µM (inactive); in the test with RXF 393, > 100 µM (inactive); in the test on NCI-H226, > 100 µM (inactive); in the test on NCI-H460 it was > 56.8 µM (inactive); in the test with HCT-15, above 71.8 µM.
On to `COC(=O)C(CCS(=O)(=O)CC(=O)C(=O)Nc1cccc(C(C)=O)c1)C(=O)OC`, for which the GI50 in the test on UACC-257 was > 100 µM (inactive); with SF-295, > 100 µM (inactive); in the test with DLD-1, > 56.2 µM (inactive); in the test on SW-620, > 100 µM (inactive); in the test with K562, > 61 µM (inactive); in the test on SN12C, > 100 µM (inactive). Further, the GI50 in the test with M19-MEL is > 100 µM (inactive); in the test on HCT-116, > 56.6 µM (inactive); with DMS-114, > 39.4 µM (inactive); with CAKI-1, > 100 µM (inactive); in the test with IGROV-1, > 100 µM (inactive); with HL-60, > 100 µM (inactive). The GI50 in the test on RPMI-8226 is > 47.2 µM (inactive); with COLO 205 it was > 54.5 µM (inactive); with RXF 393, > 100 µM (inactive); with NCI-H226, > 100 µM (inactive); in the test with NCI-H460, > 53 µM (inactive); in the test with HCT-15, above 72.1 µM.
For the molecule `O=C1C(Cl)C(c2ccccc2)N1n1cnc2ccccc2c1=O` (configuration not stated), the GI50 in the test on UACC-257, in the test with SF-295, in the test with DLD-1, in the test with SW-620, in the test with K562 and in the test on SN12C was > 100 µM (inactive) each time. Moreover, the GI50 in the test with M19-MEL was > 100 µM (inactive); with HCT-116 it was > 100 µM (inactive); with DMS-114, > 100 µM (inactive); in the test on CAKI-1 it was 37.8 µM (inactive); in the test with IGROV-1, > 100 µM (inactive); in the test on HL-60, > 100 µM (inactive). Besides, the GI50 with RPMI-8226 is 54.2 µM (inactive); with COLO 205 it was > 100 µM (inactive); in the test with RXF 393, 76.9 µM (inactive); with NCI-H226, 28.4 µM (inactive); in the test on NCI-H460 it was > 100 µM (inactive); with HCT-15, above 100 µM.
Turning to `CC(=O)OC1CC2C(C)(C)C(=O)C=C[C@]2(C)C2CCC3(C)C(c4ccoc4)[C@@H](O)[C@H]4O[C@]43[C@]12C` (some centres not stated), the GI50 with UACC-257 is 21.4 µM (inactive); in the test on SF-295 it was 23.3 µM (inactive); with DLD-1, 20.4 µM (inactive); with SW-620, 18.9 µM (inactive); with K562, 16.4 µM (inactive); in the test with SN12C, 18.6 µM (inactive). The GI50 in the test on M19-MEL is 18.7 µM (inactive); in the test on HCT-116, 24.9 µM (inactive); with DMS-114, 20.1 µM (inactive); in the test with CAKI-1, 22 µM (inactive); in the test on IGROV-1 it was 24 µM (inactive); in the test with HL-60, 24.9 µM (inactive). Moreover, the GI50 was 18.4 µM (inactive) in the test on RPMI-8226; 19.8 µM (inactive) with COLO 205; 19.1 µM (inactive) in the test with RXF 393; 18.4 µM (inactive) with NCI-H226; 19.3 µM (inactive) with NCI-H460; 17.4 µM in the test with HCT-15.
On to `CCOC(=O)C1(C/C=C(/C)Cl)CCCC1=O` (configuration not stated), for which the GI50 in the test with UACC-257 is > 100 µM (inactive); in the test with SF-295 it was > 100 µM (inactive); in the test with DLD-1, 71.3 µM (inactive); in the test on K562, > 100 µM (inactive); in the test on SN12C, > 100 µM (inactive); with M19-MEL, > 100 µM (inactive). In addition, the GI50 in the test on HCT-116 is > 100 µM (inactive); in the test with DMS-114, 71.6 µM (inactive); in the test on CAKI-1 it was > 100 µM (inactive); in the test on IGROV-1, > 100 µM (inactive); with HL-60 it was 86.5 µM (inactive); with RPMI-8226 it was 26.9 µM (inactive). Also, the GI50 was > 100 µM (inactive) with COLO 205; > 100 µM (inactive) in the test with RXF 393; > 100 µM (inactive) in the test with NCI-H226; > 100 µM (inactive) in the test on NCI-H460; 26.7 µM in the test on HCT-15.
Turning to `COc1cc2c(cc1OC)C1C=NC(C(=O)O)(C2)c2ccccc21` (configuration not stated), the GI50 in the test on UACC-257 was > 100 µM (inactive); in the test on SF-295, > 100 µM (inactive); in the test on DLD-1, > 100 µM (inactive); with SW-620, > 100 µM (inactive); with K562, 23 µM (inactive); in the test with SN12C, > 100 µM (inactive). Also, the GI50 with M19-MEL was > 100 µM (inactive); with HCT-116, > 100 µM (inactive); in the test with DMS-114, > 100 µM (inactive); in the test on CAKI-1, > 100 µM (inactive); in the test with IGROV-1, > 100 µM (inactive); in the test with HL-60 it was 26.4 µM (inactive). The GI50 with RPMI-8226 was > 100 µM (inactive); in the test on COLO 205 it was > 100 µM (inactive); in the test with RXF 393 it was > 100 µM (inactive); in the test with NCI-H226, > 100 µM (inactive); in the test on NCI-H460, > 100 µM (inactive); with HCT-15, above 100 µM.
For `NC1=NN(c2ccccc2)C(=O)C1/C(=N\NC(=O)c1cc2ccccc2cc1O)C(=O)Nc1nc([N+](=O)[O-])cs1` (configuration not stated), the GI50 in the test on UACC-257 is 22.2 µM (inactive); in the test with SF-295 it was 28.9 µM (inactive); in the test on DLD-1, 31.5 µM (inactive); with SW-620 it was 27.9 µM (inactive); in the test on K562, 9.64 µM (inactive); in the test on SN12C it was 37 µM (inactive). The GI50 in the test with M19-MEL is 27.8 µM (inactive); in the test with HCT-116, 32.1 µM (inactive); in the test with DMS-114, 18.4 µM (inactive); in the test with CAKI-1, > 25.6 µM (inactive); with IGROV-1 it was 19.1 µM (inactive); in the test on HL-60 it was 8.81 µM (inactive). Further, the GI50 in the test on RPMI-8226 is 9.59 µM (inactive); in the test with COLO 205, 23.7 µM (inactive); with RXF 393, 2.73 µM (inactive); in the test with NCI-H226, 49.1 µM (inactive); in the test with NCI-H460, 18.1 µM (inactive); in the test on HCT-15, 24.3 µM.
